Tests used:
HIV-1 protease = HIV-1 protease (Human immunodeficiency virus type 1 group M subtype B, UniProt P04585); type: cell-based; details: antiviral studies
PI-resistant strains = assay: cross-resistance studies against 63 PI-resistant strains; type: cell-based, HIV; details: compared with approved protease inhibitors
laboratory-adapted virus = assay: 48-week resistance selection study and site-directed mutagenesis in vitro; type: cell-based, HIV
Experimental: A 48-week resistance selection study was performed by increasing the concentrations of TMB-607 against a laboratory-adapted virus in vitro.

solubility = type: physicochemical
HIV = details: cited from earlier work

Structure (SMILES): COC(=O)NC(C(=O)NCCCCC(CO)N(CC(C)C)S(=O)(=O)c1ccc(N)cc1)C(c1ccccc1)c1ccccc1 (stereo not drawn) [TMB-607]
- inhibiting the HIV-1 protease (HIV-1 protease): effective and selective
- levels of reduced susceptibility (PI-resistant strains): lower levels of reduced susceptibility than any of approved Protease inhibitors (PIs)
- mutations selected in the protease open reading frame (laboratory-adapted virus; 48 weeks, increasing concentrations of TMB-607, laboratory-adapted virus in vitro): Four mutations in the protease open reading frame were selected
- resistance conferred by single mutations (laboratory-adapted virus; site-directed mutagenesis, in vitro): single mutations did not result in significant resistance
- solubility (solubility): poor
- protein binding-adjusted antiviral activity EC50 (HIV): 0.023 µg/mL

— patent US10369129B2, “Long acting pharmaceutical composition of protease inhibitor” (TaiMed Biologics, Inc., priority 2016, dated 2019)
